{"source": "patent US20250236616A1", "about": "“IMMUNOMODULATING AZALIDES” (Zoetis Services LLC, priority 2021, published 2025)", "key": {"[1]": {"test_system": "P. multocida", "test": "Murine P. multocida intranasal challenge study, treatment 18 hours after challenge, survival", "type": "in vivo, mice", "details": "subcutaneous 18 hours after challenge (5×10^3 CFU/mouse); tulathromycin 16 mg/kg, M9 32 mg/kg, ceftiofur 9 mg/kg", "procedure": "In one murine P. multocida intranasal challenge study, mice were administered tulathromycin (16 mg/kg; T02), M9 (32 mg/kg; T03), or ceftiofur (9 mg/kg; T04) by subcutaneous injection 18 hours after bacterial challenge (5×10^3 CFU/mouse) for lung tissue RNA sequence analysis. Survival at Day 7 was about 80%, 50%, and 90% for T02, T03, and T04, respectively, compared to placebo at 0%. Differential gene expression from total lung tissue RNA sequence analysis indicated at least 226 unique genes were up or down regulated (with significance) for T03. Output from ingenuity pathway analysis of these unique genes predicted major upstream regulators of the involved pathways. Data was analyzed based on the number of genes being modulated in the same direction that were associated with a given upstream regulator. An activation z-score of 2 or greater is considered significant and the direction change is indicated by + (activated) or -(inhibited). The top 5 pathways included: IL-9 signaling, glucocorticoid receptor signaling, prolactin signaling, JAK STAT signaling, and IL-17 signaling. The top 6 upstream regulators (activation z-score) included: lipopolysaccharide (−6.725), TNF (−4.669), IFNγ (−5.759), IL-1β (−5.947), STAT1 (−2.787), and poly rl: rC-RNA (−5.289). Even though this study was run in the murine model, the top upstream regulators identified as being modulated by M9 include an almost ubiquitous overlap with the pathways identified in the natural disease study as being key mediators in BRD, and therefore is modulating highly relevant pathways in BRD pathobiology."}, "[2]": {"test_system": "M. haemolytica (strain: OSU-012103-BHI)", "test": "Bovine M. haemolytica intratracheal lung challenge model, mortality", "type": "in vivo", "details": "M. haemolytica challenge Day 0; subcutaneous Day -1; M9 10 mg/kg, Draxxin 2.5 mg/kg; 6 animals", "procedure": "To evaluate immunomodulation effects and potential biomarkers, a bovine M. haemolytica (strain: OSU-012103-BHI) intratracheal lung challenge model study was completed utilizing M9 treatment in the presence and absence of bacterial challenge and a Draxxin® comparator. […] Animals were administered 0.05 mL/kg saline (T01), 10 mg/kg M9 (T02); Draxxin 2.5 mg/kg (T03) and 10 mg/kg M9 (T04) by subcutaneous injection on Day-1. Dose was based on body weight. Animals were challenge on Day 0 with the exception of T04. Blood was collected longitudinally throughout the study for biomarker evaluation panel (e.g., IL-6 and CD163) including two baseline samples prior to treatment. FIG. 4A depicts the area under the curve concentrations for IL-6 protein for individual animals against percent lung lesion scores and FIG. 4B depicts the CD163 fold change area under the curve for individual animals against percent lung lesion scores. Data is represented as percent lung lesion scores against the area under the curve (AUC) for IL-6 protein (immunoassay expressed in pg/mL) and CD163 (flow cytometric mean fluorescent intensity (MFI) in fold change from baseline). In both assays, a 2-fold change is typically considered to be relevant."}, "[3]": {"test_system": "E. coli", "test": "MIC, E. coli", "type": "cell-based", "details": "Escherichia coli", "from_the_text": "Primary screening of the compounds of the invention included the evaluation of antibacterial activity of analogs through determination of microbial inhibition concentration (MIC) as per CLSI guidelines. The screening panel included the relevant BRD pathogens: 1) M. haemolytica (e.g., 12726, 46571 and 49023, all AHDRCC; and 33396 (ATCC)); and 2) P. multocida (e.g., 34135 and 46572 (both AHDRCC) and 43137 (ATCC)). In some instances, H. somni (A700025K) pathogens were also included in the screening panel. The AHDRCC strains originated from the Zoetis BRD/SRD surveillance program and refer to the Animal Health Development and Research Culture Collection. In addition, the screen assessed S. aureus (29213 ATCC) as a representative Gram-positive isolate, E.faecalis (19433 ATCC) as a commensal gram-positive gastrointestinal bacterium and E. coli (100, 3110 and 25922 (ATCC)) for the evaluation of efflux potential. The screening panel BRD pathogens were assessed in determining antibacterial activity of the Formula (1) compounds.\nAll relevant BRD pathogens were initially screened at a top concentration of 64 μg/mL of a Formula (1) compound in an eleven-point dilution series. […] If an Example was purified further, the MICs moved […] essentially two dilutions across all strains tested in the screening panel.\nIn-Vitro MIC Model Compounds were analyzed for antibacterial activity against a panel of animal health specific gram-positive and gram-negative clinical strains by diluting compounds in DMSO to an appropriate stock concentration to determine the Minimal Inhibitory Concentration (MIC) via a semi-automated broth micro-dilution method (CLSI reference method) with QC strains and anti-microbial agent(s). Specifically, bacteria were grown overnight on TSA w/5% sheep blood agar plates and diluted in saline buffer to a McFarland Standard 0.5, then further diluted in cation-ion adjusted Mueller Hinton Broth to a final concentration of approximately 5×10^5 CFU/mL. 100 μL of inoculated media was added to 96-well plate(s) with 3 μL of serially diluted compound in each row. Depending on strain (see CLSI reference method), bacteria were incubated 18-22 hours at 35-37° C. in ambient air, with 5% CO2 or anaerobically (up to 48 hours)."}, "[4]": {"test_system": "IL-6", "test": "IL-6 biomarker in bovine M. haemolytica challenge", "type": "in vivo", "procedure": "Cytokine Detection—An MSD U-Plex cytokine assay was developed following the MSD U-Plex protocol guide and included biotinylated capture antibodies against: bovine Interleukin (IL)-1β (Biorad), bovine IL-6 (R&D Systems) and bovine tumor necrosis factor (TNF)-α (R&D Systems). The anti-IL-1β antibody was biotinylated using EZ-Link Sulfo-NHS-Biotin (Thermo Scientific) at a challenge ratio of 1:20 according to manufacturer instructions. Assay calibrators (Kingfisher) were diluted to a concentration of […] in control lithium heparin plasma, followed by 4-fold serial dilutions into plasma. The detection antibodies were sulfo-tagged following the MSD quick guide conjugation protocol using a challenge ratio of 1:20. Antibodies were used at the following concentrations: anti-IL-1β at 1 μg/mL, anti-IL-6 at 1 μg/mL and anti-TNF-α at 0.5 μg/mL. Cytokines were quantified according to manufacturer's instructions using a chemiluminescent readout. In brief, 0.5 mL of all biotinylated antibodies were diluted to 10 μg/mL with Diluent 100 and paired to their respective linkers by adding 750 μL of supplied Linker solution and incubated for 30 minutes followed by addition of Stop solution for another 30 minutes. […] Plates were washed a further three times before addition of 150 μL 2X Read buffer and read immediately on the SI6000 instrument (MSD). […]"}}}
{"compound": "CCCNC[C@]1(O)[C@H](C)O[C@@H](O[C@H]2[C@H](C)[C@@H](O[C@@H]3O[C@H](C)C[C@H](N(C)C)[C@H]3O)[C@](C)(O)C[C@@H](C)CN[C@H](C)[C@@H](O)[C@](C)(O)[C@@H](CC)OC(=O)[C@@H]2C)C[C@@]1(C)OC", "note": "[tulathromycin, (2R,3S,4R,5R,8R,10R,11R,12S,13S,14R)-11-(((2S,3R,4S,6R)-4-(dimethylamino)-3-hydroxy-6-methyltetrahydro-2H-pyran-2-yl)oxy)-2-ethyl-3,4,10-trihydroxy-13-(((2R,4R,5S,6S)-5-hydroxy-4-methoxy-4,6-dimethyl-5-((propylamino)methyl)tetrahydro-2H-pyran-2-yl)oxy)-3,5,8, 10, 12, 14-hexamethyl-1-oxa-6-azacyclopentadecan-15-one]", "values": [{"measurement": "Survival at Day 7", "setting": "[1]", "result": "about 80%"}, {"measurement": "Mortality", "setting": "[2]", "result": "0/6"}, {"measurement": "MIC", "setting": "[3]; E. coli 25922", "result": 2, "unit": "µg/mL"}, {"measurement": "MIC", "setting": "[3]; E. coli W3110", "result": 8, "unit": "µg/mL"}, {"measurement": "IL-6 levels", "setting": "[4]", "result": "significantly reduced IL-6 levels"}]}
